Laboratory results from article PMC10403511, “DNA-encoded chemical libraries yield non-covalent and non-peptidic SARS-CoV-2 main protease inhibitors” (Communications Chemistry, 2023).
Like-named read-outs stand apart in the source and are kept apart here.

How the values were obtained:
[1] = target: T1, cathepsin B (Homo sapiens, UniProt P07858); experiment: Human protease off-target assay, commercial kit; format: biochemical; conditions: 10 µM compound
T1 construct: purchased BPS Bioscience 79590
Method: (§1) These assays were done exactly as we described earlier. In brief, commercial kits were used for all four human proteases as follows: Cathepsin B (BPS Bioscience, #79590), Renin (BPS Bioscience, #80211), Thrombin (Sigma-Aldrich, #MAK243), and MMP-1 (Biovision, #K794-100). All assays were run in kinetic mode and at RT, except MMP-1, which was run at 37 °C. Positive controls were used for all assays, i.e., E64 for Cathepsin B, Aliskiren for Renin, CDD-1472 for Thrombin, and GM 6001 for MMP-1. Activities were obtained from linear initial progress curves, and fractional activities were calculated from reactions with no inhibitors[17],[19],[34].
(§2) Supplementary Figure 4. Potential off-target inhibition of major proteases, i.e. thrombin (a serine protease), cathepsin B (a cysteine protease like Mpro), renin (an
(§3) control inhibitors as indicated. S9 […]

[2] = target: T2, matrix metallopeptidase-1 (MMP-1) (Homo sapiens, UniProt P03956); experiment: Human protease off-target assay, commercial kit; format: biochemical; conditions: 10 µM compound, 37 °C
T2 construct: purchased Biovision K794-100
T2 sequence (P03956 100-469): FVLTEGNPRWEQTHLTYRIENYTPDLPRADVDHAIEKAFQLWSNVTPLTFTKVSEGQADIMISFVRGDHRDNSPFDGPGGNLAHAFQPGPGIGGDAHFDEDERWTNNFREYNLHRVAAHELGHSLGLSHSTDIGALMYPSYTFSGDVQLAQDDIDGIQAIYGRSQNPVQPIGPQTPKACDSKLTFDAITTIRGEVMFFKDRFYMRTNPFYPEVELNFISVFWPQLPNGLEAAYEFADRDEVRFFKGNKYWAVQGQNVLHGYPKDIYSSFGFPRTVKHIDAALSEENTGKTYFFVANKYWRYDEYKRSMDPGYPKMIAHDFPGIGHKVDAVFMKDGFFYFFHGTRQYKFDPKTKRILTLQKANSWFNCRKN
Method: as §1, §2, §3

[3] = target: T3, renin (Homo sapiens, UniProt P00797); experiment: Human protease off-target assay, commercial kit; format: biochemical; conditions: 11.1 µM compound
T3 construct: purchased BPS Bioscience 80211
T3 sequence (P00797 67-406): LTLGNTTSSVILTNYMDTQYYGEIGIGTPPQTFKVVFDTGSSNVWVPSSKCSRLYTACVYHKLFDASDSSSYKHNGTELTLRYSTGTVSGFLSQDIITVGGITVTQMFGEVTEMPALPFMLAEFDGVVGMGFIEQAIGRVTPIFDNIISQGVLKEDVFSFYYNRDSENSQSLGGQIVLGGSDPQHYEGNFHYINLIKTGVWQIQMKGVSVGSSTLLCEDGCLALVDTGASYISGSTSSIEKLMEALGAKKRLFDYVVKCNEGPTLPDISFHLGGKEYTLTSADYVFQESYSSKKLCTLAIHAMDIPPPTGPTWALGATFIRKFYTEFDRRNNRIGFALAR
Method: as §1, §2, §3

[4] = target: T4, thrombin (Homo sapiens, UniProt P00734); experiment: Human protease off-target assay, commercial kit; format: biochemical; conditions: 10 µM compound
T4 construct: purchased Sigma-Aldrich MAK243
Method: as §1, §2, §3

[5] = system: HepG2 cells; format: in vitro ADME; conditions: 10 μM, 2 h
Method: The plate was incubated at 37 °C for another 2 h, and the medium in the plate was then decanted. The cells were rinsed with 1 mL of 1× DPBS three times, trypsinized at 37 °C for 3.5 min, centrifuged, and the cell pellets from each well were reconstituted in 500 μL of MeOH/H2O (vol/vol 1/1). […] The mixtures were centrifuged at 15,000 rcf for 15 min. Three microliters of the supernatant were injected into UHPLC-Q Exactive Orbitrap MS (Thermo Fisher Scientific) equipped with a 50 × 4.6-mm column (XDB C-18; Agilent Technologies) for analysis. The column temperature was set at 40 °C. The mobile phase system was (A) water (containing 0.1% formic acid) and (B) acetonitrile (containing 0.1% formic acid), with a flow rate of 0.3 mL/min. The gradient elution program was set as follows: 0 to 0.25 min, 40% B; 0.25 to 1.5 min, 40 to 98% B; 1.5 to 3.5 min, 98% B; 3.5 to 3.8 min, 98 to 40% B; 3.8 to 5 min, 40% B. Ultrapure nitrogen was used as the sheath (45 arbitrary units), auxiliary (10 arbitrary units), and sweep (1.0 arbitrary unit) gas. The capillary and auxiliary gas temperatures were 275 °C and 380 °C, respectively. The spray voltage was 3.75 kV. […]
were expressed as the intracellular concentrations (peak areas) of these compounds. […]
and homogenized. The intracellular concentrations were measured with UHPLC-Q E xa ct ive Orbitrap MS. ND stands for “not detected”.

[6] = format: in vitro ADME, human; conditions: 10 μM
Method: (§4) At time points of 0, 30, 60, and 120 min, 15 μL of the samples were taken out, and the reactions were terminated by adding 75 μL of ice-cold methanol. The reaction mixtures were then vortexed for 30 s and centrifuged at 15,000 rcf for 15 min. […] The percentage of test compound remaining at the individual time points was normalized by the 0-min.
(§5) 10 µM in duplicate (n=2) at 37 °C. The reactions were terminated at time points of 0, 30, 60 and 120 min by adding ice-cold methanol. Following centrifugation, the supernatant was analyzed using UHPLC-Q E xa ct ive Orbitrap MS. The percentage of test compound remaining at the individual time points relative to the 0 min sample was determined S12

[7] = format: in vitro ADME, mouse; conditions: 10 μM
Method: as §4, §5

[8] = system: HepG2 cells
[9] = system: HepG2 cells; experiment: cells; conditions: Homo sapiens, HepG2, 24 h, read-out: IC50 (HepG2 cell viability)
[10] = in vivo; conditions: 50 mg/kg; for half-life: plasma
Method: The whole blood samples were centrifuged at rcf 2000 for 5 min for the plasma separation of plasma. The plasma samples were stored at −80 °C before analysis. All the samples were analyzed with a Q Exactive orbitrap MS coupled with UHPLC (Thermo Fisher Scientific, San Jose, CA). LC-Q Exactive MS was operated in the same parameters used in the cell uptake assay above. The concentration of these compounds in plasma was quantified using individual calibration curves.
PK parameters such as half-time (T1/2), area under the plasma concentration–time curve during the period of observation (AUC0–t), area under the plasma concentration–time curve from zero to infinity (AUC0–∞), clearance normalized by the bioavailability (CL/F), and the mean residence time (MRT) were calculated by WinNonlin software (Certara, Princeton, NJ) by noncompartmental analysis. The plasma concentration–time curves were plotted in Prism 7 (GraphPad, San Diego, CA) as mean ± S.D.
Mouse PK of CDD compounds, 50 mg/kg
samples we re collected at 0, 5, 10, 15, 30 m in , 1, 2, 4, 6 and 8 h af ter dosing. P la sm a samples we re separated, prepared and analyzed wit h LC-MS. The compound
± SD (n=4). Tmax, time to rea ch the m a ximum pla sma concentration. Cm ax, maximum p las m a concentration. T1/2, half-lif e . AUC, area under the cu rve . CL, clea ran ce . F,
bioavailability. M R T, mean residence time.

[11] = in vitro; conditions: human
[12] = system: M^pro variant A173V; conditions: previously shown; cited from earlier work
[13] = system: M^pro variant ΔP168/A173V; conditions: previously shown; cited from earlier work

CCC[C@H](NC(=O)c1cccc2nc(-c3cncc4ccccc34)n([C@H]3C[C@H](C(=O)NC)C3)c12)c1ccc(C(F)(F)F)cc1 [CDD-1733]
inhibition of enzymatic activity [1]: None of these inhibitors blocked the enzymatic activity
inhibition of enzymatic activity [2]: None of these inhibitors blocked the enzymatic activity
inhibition of enzymatic activity [3]: None of these inhibitors blocked the enzymatic activity
inhibition of enzymatic activity [4]: None of these inhibitors blocked the enzymatic activity
cell uptake (permeability) [5]: good permeability
compound remaining in plasma ([6]; human plasma, 37 °C, after 2 h incubation): 80%
compound remaining in plasma ([7]; mouse plasma, 37 °C, after 2 h incubation): 80%
cytotoxicity ([8]; HepG2 cells): no obvious cytotoxicity
IC50 [9]: > 100 µM

CNC(=O)CCCn1c(-c2cncc3ccccc23)nc2cccc(C(=O)N[C@@H](C)c3ccc4ccccc4c3)c21 [CDD-1845]
inhibition of enzymatic activity [1]: None of these inhibitors blocked the enzymatic activity
inhibition of enzymatic activity [2]: None of these inhibitors blocked the enzymatic activity
inhibition of enzymatic activity [3]: None of these inhibitors blocked the enzymatic activity
inhibition of enzymatic activity [4]: None of these inhibitors blocked the enzymatic activity
compound remaining in plasma ([6]; human, plasma, 2 h): 80%
compound remaining in plasma ([7]; mouse, plasma, 2 h): 80%
AUC(0-inf) ([10]; male, mouse, in vivo, po): 14.9 ± 7.85 µM·h
AUC(0-t) ([10]; male, mouse, in vivo, po): 14.9 ± 7.79 µM·h
Cmax ([10]; male, mouse, in vivo, po): 8.93 ± 4.55 µM
MRT inf ([10]; male, mouse, in vivo, po): 1.25 ± 0.02 h
MRT last ([10]; male, mouse, in vivo, po): 1.22 ± 0.03 h
Tmax ([10]; male, mouse, in vivo, po): 0.33 ± 0.14 h
half-life ([10]; male, mouse, oral): 1.1 ± 0.3 h
half-life ([10]; male, mouse, po): 1.14 ± 0.32 h
CL/F ([10]; mice, per oral gavage (po.), n=4, mean ± SD): 4.02 ± 1.98 mg/ ( hr*µmol/L)/kg
cytotoxicity [8]: no obvious cytotoxicity
IC50 [9]: > 100 µM
viability at 24 h, 100 µM [11]: > 80%

CC(C)(C)[C@H](NC(=O)C(F)(F)F)C(=O)N1C[C@H]2[C@@H]([C@H]1C(=O)N[C@H](C#N)C[C@@H]1CCNC1=O)C2(C)C [Nirmatrelvir, nirmatrelvir]
increase in Ki relative to WT [12]: 50 fold
increase in Ki relative to WT [13]: 600 fold
